According to patent publication US20230000773A1, “NOVEL HEADGROUP LIPID COMPOUNDS AND COMPOSITIONS FOR INTRACELLULAR DELIVERY OF THERAPEUTIC AGENTS” (ModernaTX, Inc., priority 2019, published 2023):

How the values were obtained:
hEPO mRNA = assay: hEPO expression in CD1-mice after intravenous administration of nanoparticles; format: in vivo; settings: 6 h after intravenous administration, mRNA dose 0.5 mg/kg, N:P 3.4, compound:DSPC:cholesterol:PEG 2 50:10:38:2
Protocol: The expression of hEPO mRNA in CD1-mice was measured 6 h after intravenous administration of nanoparticles comprising a compound of the disclosure, DSPC, cholesterol, and PEG 2 in a ratio of 50:10:38:2. […] Each composition was dosed to 8 animals at an mRNA dose of 0.5 mg/kg.

mRNA = mRNA integrity in nanoparticles by RP-IP HPLC (UV 260 nm); format: physicochemical
Protocol: Integrity of mRNA comprised in nanoparticles of the disclosure, i.e., the percentages of intact mRNA, mRNA adducts, and mRNA hydrolysis products, […] (Reverse-Phase Ion-Pairing HPLC) using UV detection at 260 nm. Total purity and impurities are calculated as percent peak area.

[1] = Surface hydrophobicity by Generalized Polarization by Laurdan (GPL); format: physicochemical; settings: normalized Generalized Polarization by Laurdan; higher N-GP = less polar surface
In short: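 LNPs contained ionizable lipid:DSPC:cholesterol:PEG lipid at 50:10:38:2 mol %. Laurdan was post-inserted into the particle surface, and its fluorescence spectrum gave normalized generalized polarization (N-GP); higher N-GP means a less polar surface.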

[2] = Apparent LNP pKa by 2-(p-toluidino)-6-napthalene sulfonic acid (TNS) assay; format: physicochemical; settings: pH at half of maximum fluorescence
[3] = Heparin-sepharose binding of nanoparticles
[4] = Encapsulation efficiency (% EE), ribostar; format: physicochemical; settings: nanoparticles, compound:DSPC:cholesterol:PEG 2 50:10:38:2 mol %
Excerpt: The efficiency of encapsulation of a therapeutic and/or prophylactic describes the amount of therapeutic and/or prophylactic that is encapsulated or otherwise associated with a lipid nanoparticle (e.g., an empty LNP or a loaded LNP) after preparation, relative to the initial amount provided. The encapsulation efficiency is desirably high (e.g., close to 100%). The encapsulation efficiency may be measured, for example, by comparing the amount of therapeutic and/or prophylactic in a solution containing the lipid nanoparticle (e.g., an empty LNP or a loaded LNP) before and after breaking up the lipid nanoparticle (e.g., an empty LNP or a loaded LNP) with one or more organic solvents or detergents. Fluorescence may be used to measure the amount of free therapeutic and/or prophylactic (e.g., RNA) in a solution. For the lipid nanoparticles (e.g., empty LNPs or loaded LNPs) described herein, the encapsulation efficiency of a therapeutic and/or prophylactic may be at least 50%, for example 50%, 55%, 60%, 65%, 70%, 75%, 80%, 85%, 90%, 91%, 92%, 93%, 94%, 95%, 96%, 97%, 98%, 99%, or 100%. In some embodiments, the encapsulation efficiency may be at least 80%. In certain embodiments, the encapsulation efficiency may be at least 90%. In some embodiments, the encapsulation efficiency of the therapeutic and/or prophylactic agent is between 80% and 100%.
(§1) Nanoparticle compositions including a therapeutic and/or prophylactic can be optimized according to the selection of a compound according to Formula (I), (I-1), (A), (A-1), (A-1a), or (A-1b), the selection of additional lipids, the amount of each lipid in the lipid component, and the wt:wt ratio of the lipid component to the therapeutic and/or prophylactic. Nanoparticle compositions including DSPC as a phospholipid, cholesterol as a structural lipid, PEG 2 as a PEG lipid, and a compound according to Formula (I), (I-1), (A), (A-1), (A-1a), or (A-1b) were prepared. The ratios of the lipids were 50:10:38:2 mol % for the lipid according to Formula (I), (I-1), (A), (A-1), (A-1a), or (A-1b):DSPC:cholesterol:PEG 2. Tables 2a, 2b, and 3-5 summarize the characteristics of the formulations.
Table 4 summarizes the surface hydrophobicity of nanoparticles comprising compounds of the disclosure as determined by Generalized Polarization by Laurdan (GPL). Laurdan, a fluorescent aminonaphthalene ketone lipid, was post-inserted into the nanoparticle surface and the fluorescence spectrum of Laurdan was collected to determine the normalized Generalized Polarization (N-GP). Higher N-GP indicates a less polar surface.

[5] = Size and polydispersity index of nanoparticles comprising compounds of the disclosure; format: physicochemical; settings: compound:DSPC:cholesterol:PEG 2 50:10:38:2 mol %
Excerpt: Lipid nanoparticles (e.g., empty LNPs or loaded LNPs) may be characterized by a variety of methods. For example, microscopy (e.g., transmission electron microscopy or scanning electron microscopy) may be used to examine the morphology and size distribution of a nanoparticle composition. Dynamic light scattering or potentiometry (e.g., potentiometric titrations) may be used to measure zeta potentials. Dynamic light scattering may also be utilized to determine particle sizes. Instruments such as the Zetasizer Nano ZS (Malvern Instruments Ltd, Malvern, Worcestershire, UK) may also be used to measure multiple characteristics of a nanoparticle composition, such as particle size, polydispersity index, and zeta potential.
as §1, with “Tables 2a, 2b, and 3-5 summarize the characteristics of the formulations.” left out

serum protein ApoE = assay: ApoE binding affinity of nanoparticles (bead binding, flow cytometry)
Protocol: The ApoE binding affinity, i.e., the affinity of binding between nanoparticles comprising compounds of the disclosure and the serum protein ApoE, was determined by binding the nanoparticles to beads, then incubating them with known quantities of […]. The quantity of protein bound to the nanoparticle was then determined by flow cytometry.

[6] = Encapsulation efficiency (% EE), ribogreen; format: physicochemical; settings: nanoparticles, compound:DSPC:cholesterol:PEG 2 50:10:38:2 mol %
Excerpt: The efficiency of encapsulation of a therapeutic and/or prophylactic describes the amount of therapeutic and/or prophylactic that is encapsulated or otherwise associated with a lipid nanoparticle (e.g., an empty LNP or a loaded LNP) after preparation, relative to the initial amount provided. The encapsulation efficiency is desirably high (e.g., close to 100%). The encapsulation efficiency may be measured, for example, by comparing the amount of therapeutic and/or prophylactic in a solution containing the lipid nanoparticle (e.g., an empty LNP or a loaded LNP) before and after breaking up the lipid nanoparticle (e.g., an empty LNP or a loaded LNP) with one or more organic solvents or detergents. Fluorescence may be used to measure the amount of free therapeutic and/or prophylactic (e.g., RNA) in a solution.
as §1, with “Tables 2a, 2b, and 3-5 summarize the characteristics of the formulations.” left out

[7] = mRNA integrity after 2 weeks at 25° C., percent peak area
[8] = mRNA integrity at t = 0, percent peak area

Row | SMILES | Adduct (mRNA; [7]) [%] | Hydrolysis Product (mRNA; [7]) [%] | Intact (mRNA; [7]) [%] | Adduct (mRNA; [8]) [%] | Hydrolysis Product (mRNA; [8]) [%] | Intact (mRNA; [8]) [%] | Average N-GP [1] | LogIC50 (pKa) [2] | Relative % Area Bound by LNP [3] [%] | % EE (ribostar) [4] [%] | PDI [5] | Size (nm) [5] [nm] | Median Fluorescence Intensity, PE (serum protein ApoE) | % EE (ribogreen) [6] [%] | Avg. [hEPO] mIU/mL (hEPO mRNA) [mIU/mL]
1 | CCCCCCCCC(CC)OC(=O)CCCCCCCN(CCCCCCCC(=O)OC(CCCCCCCC)CCCCCCCC)CCCNC1=NC(=O)N(C)C1=O (centres unmarked) [Compound 9, Heptadecan-9-yl 8-((3-((1-methyl-2,5-dioxo-2,5-dihydro-1H-imidazol-4-yl)amino)propyl)(8-oxo-8-(undecan-3-yloxy)octyl)amino)octanoate] | – | – | – | – | – | – | – | – | 0 | 68.9 | 0.154 | 77.1 | 56008 | 92.9 | 5.32E+05
2 | CCCCCCCCC(CC)OC(=O)CCCCCCCN(CCCCCCCC(=O)OC(CCCCCCCC)CCCCCCCC)CCCNS(=O)(=O)NC (centres unmarked) [Compound 59, Heptadecan-9-yl 8-((3-((N-methylsulfamoyl)amino)propyl)(8-oxo-8-(undecan-3-yloxy)octyl)amino)octanoate] | – | – | – | – | – | – | 0.762 | 6.74 | 0 | – | 0.16 | 72.7 | – | 98.3 | 2.49E+05
3 | CCCCCCCCC(CC)OC(=O)CCCCCCCN(CCCCCCCC(=O)OC(CCCCCCCC)CCCCCCCC)CCCNc1n[s+]([O-])nc1NC (centres unmarked) [Compound 1, Heptadecan-9-yl 8-((3-((4-(methylamino)-1-oxido-1,2,5-thiadiazol-3-yl)amino)propyl)(8-oxo-8-(undecan-3-yloxy)octyl)amino)octanoate] | – | – | – | – | – | – | – | 6.94 | 0 | 61.4 | 0.131 | 67.6 | 182846 | 97.5 | 6.38E+05

Further lines, with some results ahead:

Row | Adduct (mRNA; [7]) [%] | Hydrolysis Product (mRNA; [7]) [%] | Intact (mRNA; [7]) [%] | Adduct (mRNA; [8]) [%] | Hydrolysis Product (mRNA; [8]) [%] | Intact (mRNA; [8]) [%] | Average N-GP [1] | LogIC50 (pKa) [2] | Relative % Area Bound by LNP [3] [%] | % EE (ribostar) [4] [%] | PDI [5] | Size (nm) [5] [nm] | Median Fluorescence Intensity, PE (serum protein ApoE) | % EE (ribogreen) [6] [%] | SMILES | Avg. [hEPO] mIU/mL (hEPO mRNA) [mIU/mL]
4 | 24.9 | 23.5 | 51.6 | 5.6 | 16.8 | 77.7 | 0.988 | 6.39 | 0 | 78.6 | 0.090 | 76.7 | 78901 | 91.2 | CCCCCCCCC(CC)OC(=O)CCCCCCCN(CCCCCCCC(=O)OC(CCCCCCCC)CCCCCCCC)CCCNC1=C(C(N)=O)C(=O)OC1 (centres unmarked) [Compound 72, Heptadecan-9-yl 8-((3-((4-carbamoyl-5-oxo-2,5-dihydrofuran-3-yl)amino)propyl)(8-oxo-8-(undecan-3-yloxy)octyl)amino)octanoate] | 7.36E+05
5 | 26.3 | 39.0 | 34.7 | 10.1 | 32.8 | 57.1 | 0.890 | 6.67 | 6.69 | 48.5 | 0.123 | 71.7 | 146715 | 84.1 | CCCCCCCCC(CC)OC(=O)CCCCCCCN(CCCCCCCC(=O)OC(CCCCCCCC)CCCCCCCC)CCCNS(=O)(=O)C1CC1 (centres unmarked) [Compound 67, Heptadecan-9-yl 8-((3-(cyclopropanesulfonamido)propyl)(8-oxo-8-(undecan-3-yloxy)octyl)amino)octanoate] | 1.43E+06
6 | 8.5 | 77.2 | 14.3 | 6.0 | 51.8 | 42.2 | 1.055 | 6.69 | 5.65 | 20.5 | 0.192 | 90.8 | 41093 | 41.5 | CCCCCCCCC(CC)OC(=O)CCCCCCCN(CCCCCCCC(=O)OC(CCCCCCCC)CCCCCCCC)CCCNC(=O)C1(C)CC1 (centres unmarked) [Compound 60, Heptadecan-9-yl 8-((3-(1-methylcyclopropane-1-carboxamido)propyl)(8-oxo-8-(undecan-3-yloxy)octyl)amino)octanoate] | 7.34E+05
7 | – | – | – | – | – | – | 0.866 | 6.41 | 6.25 | – | 0.273 | 126.4 | – | 37.7 | CCCCCCCCC(CC)OC(=O)CCCCCCCN(CCCCCCCC(=O)OC(CCCCCCCC)CCCCCCCC)CCCNS(=O)(=O)CCOCc1ccccc1 (centres unmarked) [Compound 63, Heptadecan-9-yl 8-((3-((2-(benzyloxy)ethyl)sulfonamido)propyl)(8-oxo-8-(undecan-3-yloxy)octyl)amino)octanoate] | 1.90E+05
